Source: publication PMC11480411, “Mucosal sugars delineate pyrazine vs pyrazinone autoinducer signaling in Klebsiella oxytoca” (Nature Communications, 2024)
Values joined by “and” are separate entries in the source; they are usually repeats but may differ in a detail not shown here. Equal entries are not always repeated.

Legend:
Type in all cases: cell-based
[1] = system: 314-member panel of human G protein-coupled receptors (GPCRs); test: PRESTO-Tango screen of 314-member human GPCR panel; conditions: 100 µM, HTLA cells
Method: The PRESTO-Tango analyses were performed as previously published. Briefly, HTLA cells, a HEK293 cell line that stably expresses β-arrestin-TEV and tTA-Luciferase (a kind gift from Gilad Barnea, Brown University), were plated in 96-well tissue culture plates (Eppendorf) in DMEM containing 10% FBS and 1% Penicillin/Streptomycin. One day after plating (after reaching approximately 90% confluence), 200 ng per well GPCR-Tango plasmids[37] in 20 μL DMEM were individually mixed with 400 ng polyethylenimine (Polysciences) in an equal volume of DMEM and incubated for 20 min at room temperature before adding the transfection mixture to the HTLA cells. 16-24 h after transfection, medium was replaced with 180 μL fresh DMEM containing 1% Penicillin/Streptomycin and 10 mM HEPES and 20 μL of 3 or 3-Homo to reach a final concentration of 100 μM. Supernatants were aspirated 20 h after stimulation and 50 μl per well of Bright-Glo solution (Promega) diluted 20-fold with PBS containing 20 mM HEPES was added into each well. After 15 min incubation at room temperature, luminescence was quantified using a Spectramax i3x microplate reader (Molecular Devices). Activation fold for each sample was calculated by dividing relative luminescence units (RLU) for each condition by RLUs from PBS control. […]

[2] = molecular target: T1, ADRB3 (Homo sapiens, UniProt P13945); test: PRESTO-Tango GPCR screen; conditions: 100 µM
T1 construct: purchased PRESTO-Tango GPCR kit (Roth lab / Addgene)
In short: (§1)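 β-Arrestin recruitment Tango format: HTLA cells, PEI transfection of receptor-Tango construct, 16-24 h; test compound 100 μM final, 20 h; Bright-Glo luminescence; RLU/PBS control RLU = fold activation. Dose-response curves run from 10^−4 M to 10^−15 M.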

[3] = molecular target: T2, CASR (Homo sapiens, UniProt P41180); test: PRESTO-Tango GPCR screen; conditions: 100 µM
T2 construct: purchased PRESTO-Tango GPCR kit (Roth lab / Addgene)
In short: as §1

[4] = molecular target: T3, CHRM1 (Homo sapiens, UniProt P11229); test: PRESTO-Tango GPCR screen; conditions: 100 µM
T3 construct: purchased PRESTO-Tango GPCR kit (Roth lab / Addgene)
In short: as §1

[5] = molecular target: T4, CNR1 (Homo sapiens, UniProt P21554); test: PRESTO-Tango GPCR screen; conditions: 100 µM
T4 construct: purchased PRESTO-Tango GPCR kit (Roth lab / Addgene)
In short: as §1

[6] = molecular target: T5, CXCR3 (Homo sapiens, UniProt P49682); test: PRESTO-Tango GPCR screen; conditions: 100 µM
T5 construct: purchased PRESTO-Tango GPCR kit (Roth lab / Addgene)
In short: as §1

[7] = molecular target: T6, DRD2 (Homo sapiens, UniProt P14416); test: PRESTO-Tango GPCR screen; conditions: 100 µM
T6 construct: purchased PRESTO-Tango GPCR kit (Roth lab / Addgene)
In short: as §1

[8] = molecular target: T7, EDNRB (Homo sapiens, UniProt P24530); test: PRESTO-Tango GPCR screen; conditions: 100 µM
T7 construct: purchased PRESTO-Tango GPCR kit (Roth lab / Addgene)
In short: as §1

[9] = molecular target: T8, F2RL2 (Homo sapiens, UniProt O00254); test: PRESTO-Tango GPCR screen; conditions: 100 µM
T8 construct: purchased PRESTO-Tango GPCR kit (Roth lab / Addgene)
In short: as §1

[10] = molecular target: T9, FPR1 (Homo sapiens, UniProt P21462); test: PRESTO-Tango GPCR screen; conditions: 100 µM
T9 construct: purchased PRESTO-Tango GPCR kit (Roth lab / Addgene)
In short: as §1

[11] = molecular target: T10, GLP1R (Homo sapiens, UniProt P43220); test: PRESTO-Tango GPCR screen; conditions: 100 µM
T10 construct: purchased PRESTO-Tango GPCR kit (Roth lab / Addgene)
In short: as §1

[12] = molecular target: T11, GPR115 (Homo sapiens, UniProt Q8IZF3); test: PRESTO-Tango GPCR screen; conditions: 100 µM
T11 construct: purchased PRESTO-Tango GPCR kit (Roth lab / Addgene)
In short: as §1

[13] = molecular target: T12, GPR174 (Homo sapiens, UniProt Q9BXC1); test: PRESTO-Tango GPCR screen; conditions: 100 µM
T12 construct: purchased PRESTO-Tango GPCR kit (Roth lab / Addgene)
In short: as §1

[14] = molecular target: T13, GPR50 (Homo sapiens, UniProt Q13585); test: PRESTO-Tango GPCR screen; conditions: 100 µM
T13 construct: purchased PRESTO-Tango GPCR kit (Roth lab / Addgene)
In short: as §1

[15] = molecular target: T14, GPR64 (Homo sapiens, UniProt Q8IZP9); test: PRESTO-Tango GPCR screen; conditions: 100 µM
T14 construct: purchased PRESTO-Tango GPCR kit (Roth lab / Addgene)
In short: as §1

[16] = molecular target: T15, GPR85 (Homo sapiens, UniProt P60893); test: PRESTO-Tango GPCR screen; conditions: 100 µM
T15 construct: purchased PRESTO-Tango GPCR kit (Roth lab / Addgene)
In short: as §1

[17] = molecular target: T16, GPRC5B (Homo sapiens, UniProt Q9NZH0); test: PRESTO-Tango GPCR screen; conditions: 100 µM
T16 construct: purchased PRESTO-Tango GPCR kit (Roth lab / Addgene)
In short: as §1

[18] = molecular target: T17, GPRC5D (Homo sapiens, UniProt Q9NZD1); test: PRESTO-Tango GPCR screen; conditions: 100 µM
T17 construct: purchased PRESTO-Tango GPCR kit (Roth lab / Addgene)
In short: as §1

[19] = molecular target: T18, HCTR1 (Homo sapiens, UniProt O43613); test: PRESTO-Tango GPCR screen; conditions: 100 µM
T18 construct: purchased PRESTO-Tango GPCR kit (Roth lab / Addgene)
In short: as §1

[20] = molecular target: T19, LPAR6 (Homo sapiens, UniProt P43657); test: PRESTO-Tango GPCR screen; conditions: 100 µM
T19 construct: purchased PRESTO-Tango GPCR kit (Roth lab / Addgene)
In short: as §1

[21] = molecular target: T20, MC5R (Homo sapiens, UniProt P33032); test: PRESTO-Tango GPCR screen; conditions: 100 µM
T20 construct: purchased PRESTO-Tango GPCR kit (Roth lab / Addgene)
In short: as §1

[22] = molecular target: T21, NPBW1 (Homo sapiens, UniProt P48145); test: PRESTO-Tango GPCR screen; conditions: 100 µM
T21 construct: purchased PRESTO-Tango GPCR kit (Roth lab / Addgene)
In short: as §1

[23] = molecular target: T22, NPFF1 (Homo sapiens, UniProt Q9GZQ6); test: PRESTO-Tango GPCR screen; conditions: 100 µM
T22 construct: purchased PRESTO-Tango GPCR kit (Roth lab / Addgene)
In short: as §1

[24] = molecular target: T23, NPY2R (Homo sapiens, UniProt P49146); test: PRESTO-Tango GPCR screen; conditions: 100 µM
T23 construct: purchased PRESTO-Tango GPCR kit (Roth lab / Addgene)
In short: as §1

[25] = molecular target: T24, QRFP (Homo sapiens, UniProt Q96P65); test: PRESTO-Tango GPCR screen; conditions: 100 µM
T24 construct: purchased PRESTO-Tango GPCR kit (Roth lab / Addgene)
In short: as §1

[26] = molecular target: T25, RXFP2 (Homo sapiens, UniProt Q8WXD0); test: PRESTO-Tango GPCR screen; conditions: 100 µM
T25 construct: purchased PRESTO-Tango GPCR kit (Roth lab / Addgene)
In short: as §1

[27] = molecular target: T26, TAAR5 (Homo sapiens, UniProt O14804); test: PRESTO-Tango GPCR screen; conditions: 100 µM
T26 construct: purchased PRESTO-Tango GPCR kit (Roth lab / Addgene)
In short: as §1

[28] = molecular target: T27, HRH1 (Homo sapiens, UniProt P35367); test: PRESTO-Tango GPCR screen and dose-response; conditions: for HRH1 dose-response raw reporter signal (Fig. 5b source data): replicate wells
T27 construct: expressed in transfected cells; host or cells: HTLA cells (HEK293 line stably expressing β-arrestin-TEV and tTA-Luciferase)
In short: (§2)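 HTLA cells (HEK293 stably expressing β-arrestin-TEV and tTA-luciferase) transiently transfected with GPCR-Tango plasmids, then exposed to compound at 100 μM final for 20 h. Luminescence read after Bright-Glo; activation fold = RLU over PBS control. Dose-response spanned 10^−4 M to 10^−15 M.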

[29] = molecular target: T28, HRH3 (Homo sapiens, UniProt Q9Y5N1); test: PRESTO-Tango GPCR screen and dose-response; conditions: for HRH3 dose-response raw reporter signal (Fig. 5b source data): replicate wells
T28 construct: expressed in transfected cells; host or cells: HTLA cells (HEK293 line stably expressing β-arrestin-TEV and tTA-Luciferase)
In short: as §2

T27 sequence (P35367 whole entry): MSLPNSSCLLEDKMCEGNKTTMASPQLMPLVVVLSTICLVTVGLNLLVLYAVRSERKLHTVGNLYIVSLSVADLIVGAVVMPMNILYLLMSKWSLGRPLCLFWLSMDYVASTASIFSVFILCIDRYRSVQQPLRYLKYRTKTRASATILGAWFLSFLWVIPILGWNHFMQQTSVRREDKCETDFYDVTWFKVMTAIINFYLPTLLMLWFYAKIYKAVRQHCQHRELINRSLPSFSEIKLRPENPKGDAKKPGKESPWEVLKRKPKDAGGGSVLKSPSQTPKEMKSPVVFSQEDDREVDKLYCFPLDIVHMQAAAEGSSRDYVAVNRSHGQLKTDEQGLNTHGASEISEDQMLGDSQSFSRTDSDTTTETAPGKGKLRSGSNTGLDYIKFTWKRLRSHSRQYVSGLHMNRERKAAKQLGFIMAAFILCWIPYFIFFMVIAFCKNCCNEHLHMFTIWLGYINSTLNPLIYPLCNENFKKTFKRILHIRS
T28 sequence (Q9Y5N1 whole entry): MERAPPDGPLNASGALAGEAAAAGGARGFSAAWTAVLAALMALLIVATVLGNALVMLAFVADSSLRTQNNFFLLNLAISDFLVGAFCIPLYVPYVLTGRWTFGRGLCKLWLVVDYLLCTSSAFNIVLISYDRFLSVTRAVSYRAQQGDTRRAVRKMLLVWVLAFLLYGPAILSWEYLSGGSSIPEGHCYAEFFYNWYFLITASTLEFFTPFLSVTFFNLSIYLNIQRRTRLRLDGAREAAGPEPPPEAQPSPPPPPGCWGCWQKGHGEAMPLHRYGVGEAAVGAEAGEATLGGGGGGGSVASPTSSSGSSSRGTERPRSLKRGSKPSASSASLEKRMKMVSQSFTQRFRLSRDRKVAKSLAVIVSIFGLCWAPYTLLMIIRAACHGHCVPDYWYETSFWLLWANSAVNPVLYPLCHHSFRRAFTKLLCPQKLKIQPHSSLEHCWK
T6 sequence (P14416 whole entry): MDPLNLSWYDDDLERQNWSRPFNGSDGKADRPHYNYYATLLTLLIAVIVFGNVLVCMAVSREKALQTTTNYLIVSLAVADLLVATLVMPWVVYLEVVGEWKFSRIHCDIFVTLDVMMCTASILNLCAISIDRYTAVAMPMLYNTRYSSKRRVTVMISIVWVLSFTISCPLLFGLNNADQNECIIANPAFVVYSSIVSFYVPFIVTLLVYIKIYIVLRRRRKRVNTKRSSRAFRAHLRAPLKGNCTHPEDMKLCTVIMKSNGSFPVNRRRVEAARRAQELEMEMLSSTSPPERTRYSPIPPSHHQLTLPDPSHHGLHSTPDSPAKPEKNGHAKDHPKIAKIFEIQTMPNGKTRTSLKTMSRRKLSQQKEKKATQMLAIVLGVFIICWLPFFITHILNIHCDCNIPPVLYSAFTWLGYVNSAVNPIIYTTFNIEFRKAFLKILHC
T9 sequence (P21462 whole entry): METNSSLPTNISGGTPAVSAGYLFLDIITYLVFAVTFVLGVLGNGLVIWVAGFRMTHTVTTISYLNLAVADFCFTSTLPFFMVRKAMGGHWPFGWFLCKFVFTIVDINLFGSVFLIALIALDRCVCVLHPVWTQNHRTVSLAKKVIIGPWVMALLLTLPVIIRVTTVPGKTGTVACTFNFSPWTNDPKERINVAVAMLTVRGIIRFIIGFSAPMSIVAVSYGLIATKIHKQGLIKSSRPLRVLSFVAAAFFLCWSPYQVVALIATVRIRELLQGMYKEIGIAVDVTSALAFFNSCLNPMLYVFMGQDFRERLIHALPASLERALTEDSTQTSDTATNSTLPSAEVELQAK
T23 sequence (P49146 whole entry): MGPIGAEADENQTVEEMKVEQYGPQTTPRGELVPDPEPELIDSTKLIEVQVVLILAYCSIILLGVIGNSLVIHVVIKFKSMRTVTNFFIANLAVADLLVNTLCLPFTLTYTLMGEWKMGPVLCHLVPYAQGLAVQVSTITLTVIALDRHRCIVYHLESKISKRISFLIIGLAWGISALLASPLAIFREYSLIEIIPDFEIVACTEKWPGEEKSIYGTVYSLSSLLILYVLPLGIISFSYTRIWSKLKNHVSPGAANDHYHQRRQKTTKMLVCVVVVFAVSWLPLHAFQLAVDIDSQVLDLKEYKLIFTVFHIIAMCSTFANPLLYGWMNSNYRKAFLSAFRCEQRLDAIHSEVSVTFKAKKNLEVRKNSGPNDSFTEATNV
T22 sequence (Q9GZQ6 whole entry): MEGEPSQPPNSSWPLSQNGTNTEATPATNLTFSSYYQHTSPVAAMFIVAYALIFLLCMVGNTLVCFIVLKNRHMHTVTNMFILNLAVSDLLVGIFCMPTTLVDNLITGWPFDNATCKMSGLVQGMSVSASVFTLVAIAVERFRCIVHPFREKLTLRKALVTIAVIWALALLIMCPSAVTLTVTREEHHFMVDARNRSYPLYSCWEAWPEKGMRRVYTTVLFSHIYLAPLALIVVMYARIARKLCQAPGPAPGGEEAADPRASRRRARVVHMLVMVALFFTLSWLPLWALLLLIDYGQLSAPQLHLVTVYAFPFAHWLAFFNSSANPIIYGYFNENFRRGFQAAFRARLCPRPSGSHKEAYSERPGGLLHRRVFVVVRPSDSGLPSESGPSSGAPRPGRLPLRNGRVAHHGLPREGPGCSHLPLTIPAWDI
T24 sequence (Q96P65 whole entry): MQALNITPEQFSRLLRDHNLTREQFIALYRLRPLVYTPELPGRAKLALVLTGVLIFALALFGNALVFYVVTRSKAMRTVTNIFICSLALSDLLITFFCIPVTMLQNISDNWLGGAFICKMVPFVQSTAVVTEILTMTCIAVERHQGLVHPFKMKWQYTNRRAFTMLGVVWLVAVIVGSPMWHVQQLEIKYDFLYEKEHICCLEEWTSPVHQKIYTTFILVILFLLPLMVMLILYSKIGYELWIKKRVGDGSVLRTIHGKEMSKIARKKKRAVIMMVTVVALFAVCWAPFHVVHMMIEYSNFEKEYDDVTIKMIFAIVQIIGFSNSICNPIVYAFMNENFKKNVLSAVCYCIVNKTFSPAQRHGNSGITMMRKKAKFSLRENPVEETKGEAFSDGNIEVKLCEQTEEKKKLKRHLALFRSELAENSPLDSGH
T18 sequence (O43613 whole entry): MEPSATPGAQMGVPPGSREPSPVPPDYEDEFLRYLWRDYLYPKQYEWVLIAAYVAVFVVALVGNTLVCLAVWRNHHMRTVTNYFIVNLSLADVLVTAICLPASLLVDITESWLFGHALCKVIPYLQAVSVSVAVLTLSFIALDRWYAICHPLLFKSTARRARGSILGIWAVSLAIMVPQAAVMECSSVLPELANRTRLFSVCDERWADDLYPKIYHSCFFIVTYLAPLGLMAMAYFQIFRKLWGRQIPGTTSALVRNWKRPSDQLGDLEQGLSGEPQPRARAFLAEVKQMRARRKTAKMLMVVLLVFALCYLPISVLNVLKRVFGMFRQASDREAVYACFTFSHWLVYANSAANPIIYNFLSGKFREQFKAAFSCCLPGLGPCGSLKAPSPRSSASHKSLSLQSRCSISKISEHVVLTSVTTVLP
T11 sequence (Q8IZF3 22-695): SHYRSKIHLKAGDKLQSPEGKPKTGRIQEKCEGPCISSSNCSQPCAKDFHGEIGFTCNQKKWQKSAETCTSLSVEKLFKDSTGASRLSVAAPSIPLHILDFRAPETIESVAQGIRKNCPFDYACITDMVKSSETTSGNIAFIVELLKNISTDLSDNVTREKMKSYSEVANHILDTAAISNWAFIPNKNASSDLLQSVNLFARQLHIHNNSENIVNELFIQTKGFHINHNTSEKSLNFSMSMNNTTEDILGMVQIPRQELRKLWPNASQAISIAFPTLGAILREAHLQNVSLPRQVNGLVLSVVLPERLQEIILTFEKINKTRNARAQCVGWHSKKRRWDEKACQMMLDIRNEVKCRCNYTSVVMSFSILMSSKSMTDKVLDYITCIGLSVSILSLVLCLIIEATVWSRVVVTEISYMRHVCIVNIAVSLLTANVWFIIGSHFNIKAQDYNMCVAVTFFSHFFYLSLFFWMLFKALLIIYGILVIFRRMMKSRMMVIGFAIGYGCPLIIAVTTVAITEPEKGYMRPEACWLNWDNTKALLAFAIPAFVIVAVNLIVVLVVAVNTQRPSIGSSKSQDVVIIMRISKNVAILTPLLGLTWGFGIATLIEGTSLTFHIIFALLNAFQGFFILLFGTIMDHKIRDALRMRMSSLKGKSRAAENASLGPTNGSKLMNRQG
T21 sequence (P48145 whole entry): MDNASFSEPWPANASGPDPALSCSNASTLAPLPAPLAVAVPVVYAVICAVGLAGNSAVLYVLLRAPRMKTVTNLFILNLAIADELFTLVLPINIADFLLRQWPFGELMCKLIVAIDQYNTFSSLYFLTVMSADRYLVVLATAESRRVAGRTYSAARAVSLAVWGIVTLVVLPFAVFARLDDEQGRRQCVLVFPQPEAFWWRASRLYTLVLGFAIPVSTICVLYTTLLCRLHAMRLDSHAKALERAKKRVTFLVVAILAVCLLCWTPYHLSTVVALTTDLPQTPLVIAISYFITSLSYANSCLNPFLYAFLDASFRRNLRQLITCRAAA
T19 sequence (P43657 whole entry): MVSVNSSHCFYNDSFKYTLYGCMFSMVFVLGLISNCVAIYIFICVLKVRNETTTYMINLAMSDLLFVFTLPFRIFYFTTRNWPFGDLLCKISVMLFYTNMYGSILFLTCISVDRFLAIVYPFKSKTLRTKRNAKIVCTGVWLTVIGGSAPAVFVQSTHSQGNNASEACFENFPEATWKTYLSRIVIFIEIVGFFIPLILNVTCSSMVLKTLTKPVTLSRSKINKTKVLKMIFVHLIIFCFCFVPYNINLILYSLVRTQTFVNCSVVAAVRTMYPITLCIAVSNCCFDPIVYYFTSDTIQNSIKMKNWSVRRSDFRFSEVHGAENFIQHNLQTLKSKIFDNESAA

With CC(C)Cc1ncc(CCCNC(=N)N)[nH]c1=O [compound 3] the “selectivity across the GPCR panel” value [1] was “selective agonists for histamine receptor H4”, the “GPCR activation (heatmap value)” value [2] was 0.7966 and the “GPCR activation (heatmap value)” value [3] was -0.8261. The “GPCR activation (heatmap value)” value [4] was -1.184, the “GPCR activation (heatmap value)” value [5] was 0.2678 and the “GPCR activation (heatmap value)” value [6] was 0.3957. For the same molecule, the “GPCR activation (heatmap value)” value [7] was 0.05842, the “GPCR activation (heatmap value)” value [8] was 0.7397 and the “GPCR activation (heatmap value)” value [9] was 0.07678. For the same molecule, the “GPCR activation (heatmap value)” value [10] was 0.7196, the “GPCR activation (heatmap value)” value [11] was 0.3036 and the “GPCR activation (heatmap value)” value [12] was 0.3053. The “GPCR activation (heatmap value)” value [13] was 0.3321, the “GPCR activation (heatmap value)” value [14] was 0.1425 and the “GPCR activation (heatmap value)” value [15] was 0.632. For the same molecule, the “GPCR activation (heatmap value)” value [16] was -0.1892, the “GPCR activation (heatmap value)” value [17] was 0.6932 and the “GPCR activation (heatmap value)” value [18] was -1.121. The “GPCR activation (heatmap value)” value [19] was -0.3941, the “GPCR activation (heatmap value)” value [20] was 0.5638 and the “GPCR activation (heatmap value)” value [21] was -0.2243. For the same molecule, the “GPCR activation (heatmap value)” value [22] was -0.8992, the “GPCR activation (heatmap value)” value [23] was 0.7283 and the “GPCR activation (heatmap value)” value [24] was 0.1932. For the same molecule, the “GPCR activation (heatmap value)” value [25] was 0.1257, the “GPCR activation (heatmap value)” value [26] was -0.001018 and the “GPCR activation (heatmap value)” value [27] was -0.8641. The “GPCR activation (heatmap value)” value ([28]; HRH1, 100 µM) was 0.7784, the “HRH1 dose-response raw reporter signal (Fig. 5b source data)” value (shortened to “HRH1 dose-response raw reporter signal”) ([28]; Log(10)Conc (M) -4) was 68060 and 70767 and the “HRH1 dose-response raw reporter signal” value ([28]; Log(10)Conc (M) -5) was 51882 and 55219. For the same molecule, the “HRH1 dose-response raw reporter signal” value ([28]; Log(10)Conc (M) -6) was 48232 and 47554, the “HRH1 dose-response raw reporter signal” value ([28]; Log(10)Conc (M) -7) was 45272 and 47466 and the “HRH1 dose-response raw reporter signal” value ([28]; Log(10)Conc (M) -8) was 44320 and 47843. The “HRH1 dose-response raw reporter signal” value ([28]; Log(10)Conc (M) -9) was 43919 and 48335, the “HRH1 dose-response raw reporter signal” value ([28]; Log(10)Conc (M) -10) was 42578 and 45208 and the “HRH1 dose-response raw reporter signal” value ([28]; Log(10)Conc (M) -11) was 43999 and 46555. For the same molecule, the “HRH1 dose-response raw reporter signal” value ([28]; Log(10)Conc (M) -12) was 42215 and 46142, the “HRH1 dose-response raw reporter signal” value ([28]; Log(10)Conc (M) -13) was 45172 and 46997 and the “HRH1 dose-response raw reporter signal” value ([28]; Log(10)Conc (M) -14) was 41526 and 48557. The “HRH1 dose-response raw reporter signal” value ([28]; Log(10)Conc (M) -15) was 37080 and 42401, the “GPCR activation (heatmap value)” value ([29]; HRH3, 100 µM) was -0.154 and the “HRH3 dose-response raw reporter signal (Fig. 5b source data)” value (“HRH3 dose-response raw reporter signal” for short) ([29]; Log(10)Conc (M) -4) was 248 and 233 and 159. The “HRH3 dose-response raw reporter signal” value ([29]; Log(10)Conc (M) -5) was 121 and 136 and 127, the “HRH3 dose-response raw reporter signal” value ([29]; Log(10)Conc (M) -6) was 224 and 147 and 106 and the “HRH3 dose-response raw reporter signal” value ([29]; Log(10)Conc (M) -7) was 127 and 100 and 124. The “HRH3 dose-response raw reporter signal” value ([29]; Log(10)Conc (M) -8) was 165 and 200 and 159, the “HRH3 dose-response raw reporter signal” value ([29]; Log(10)Conc (M) -9) was 144 and 133 and 142 and the “HRH3 dose-response raw reporter signal” value ([29]; Log(10)Conc (M) -10) was 130 and 100 and 103. The “HRH3 dose-response raw reporter signal” value ([29]; Log(10)Conc (M) -11) was 156 and 177 and 165, the “HRH3 dose-response raw reporter signal” value ([29]; Log(10)Conc (M) -12) was 103 and 171 and 100 and the “HRH3 dose-response raw reporter signal” value ([29]; Log(10)Conc (M) -13) was 124 and 189 and 112. For the same molecule, the “HRH3 dose-response raw reporter signal” value ([29]; Log(10)Conc (M) -14) was 115 and 200 and 124 and the “HRH3 dose-response raw reporter signal” value ([29]; Log(10)Conc (M) -15) was 106 and 271 and 127.
